{"source": "patent US20170348258A1", "about": "“3-Amino Benzamide Derivative Serving As B-Lactam Auxiliary Antibiotic, Preparation Method and Use Thereof” (THE HONG KONG POLYTECHNIC UNIVERSITY, priority 2014, published 2017)", "key": {"MRSA strain 1449": {"tested_on": "MRSA strain 1449", "test": "FICI of F332 with antibiotics", "format": "cell-based, S. aureus"}, "MRSA strain 2490": {"tested_on": "MRSA strain 2490", "test": "FICI of F332 with antibiotics", "format": "cell-based, S. aureus"}, "[1]": {"test": "Cytotoxicity test (MTS/PMS)", "format": "cell-based", "details": "human, LCC6MDR cells (P-gp over-expressed breast cancer cell line); 3 days at 37° C.", "excerpt": "The bacterial strains used in microbial susceptibility test were E. coli, S. aureus 29213 and B. subtilis 168. E. coli and S. aureus 29213 were obtained from the laboratory of the Hong Kong Polytechnic University. B. subtilis 168 was purchased from American Type Culture Collection (USA). The mammalian cell lines L929 (mouse peritoneal fibroblast), LCC6 (a wild type breast cancer cell line), LCC6MDR (P-gp over-expressed breast cancer cell line) were stocks in our department. Nutrient Agar, tryptone and yeast extract were purchased from Oxoid Limited (Nepean, Ontario, Canada). Luria-Bertani (LB) medium was prepared from 2 g tryptone, 1 g yeast extract, and 2 g sodium chloride in 200 ml deionized water and sterilized. Müller-Hinton broth (MHB), cation-adjusted Müller-Hinton broth (MHB) and trypticase soy broth (TSB) for microbial susceptibility test were purchased from Becton, Dickinson and Company (New Jersey, USA). A microplate reader (Bio-Rad Laboratories Model 680) is used to measure bacterial growth and cytotoxicity. An Olympus FSX100® Bio Imaging Navigator Microscope was used to observe the morphology of B. subtilis cell. The cell lines used in cytotoxicity test were stocks in our department. In this assay, a mouse fibroblast cell line (L929), a wild type breast cancer cell line (LCC6) and a P-gp-over-expressed breast cancer cell line (LCC6MDR) were mixed with compounds of various concentrations and made up to a final volume of 100 μL in 96-well plates. The cells were then incubated at 37° C. for 3 days. […] The MTS/PMS mixture (10 μL) was added into each well, and the plate was incubated at 37° C. for 2 hours. The absorbance at 490 nm was then measured with a microplate absorbance reader (Bio-Rad). The IC50 values were calculated using GraphPad (Prism 4.0). The selective index of each compound was calculated from the ratio between the toxicity level of L929 and the MIC value of S. aureus 29213. […] Two promising compounds […] were chosen to test on three mammalian cell lines."}, "MRSA strain 1402": {"tested_on": "MRSA strain 1402", "test": "FICI of F332 with antibiotics", "format": "cell-based, S. aureus"}, "MRSA strain 3580": {"tested_on": "MRSA strain 3580", "test": "FICI of F332 with antibiotics", "format": "cell-based, S. aureus"}, "MRSA strain 1136": {"tested_on": "MRSA strain 1136", "test": "FICI of F332 with antibiotics", "format": "cell-based, S. aureus"}, "[2]": {"tested_on": "MRSA strain #1749 (ATCC strain)", "test": "FICI of F332 with antibiotics", "format": "cell-based, S. aureus"}, "MRSA strain 2516": {"tested_on": "MRSA strain 2516", "test": "FICI of F332 with antibiotics", "format": "cell-based, S. aureus"}, "MRSA strain 774": {"tested_on": "MRSA strain 774", "test": "FICI of F332 with antibiotics", "format": "cell-based, S. aureus"}, "MRSA strain 2728": {"tested_on": "MRSA strain 2728", "test": "FICI of F332 with antibiotics", "format": "cell-based, S. aureus"}, "MRSA strain 231": {"tested_on": "MRSA strain 231", "test": "FICI of F332 with antibiotics", "format": "cell-based, S. aureus"}, "MRSA strain 3332": {"tested_on": "MRSA strain 3332", "test": "FICI of F332 with antibiotics", "format": "cell-based, S. aureus"}, "B. subtilis 168 cells": {"tested_on": "B. subtilis 168 cells", "test": "Effects on the morphology of B. subtilis cells", "format": "cell-based", "details": "for average cell length of B. subtilis: compound at half of MIC (1.56 μM F332, 0.78 μM F361), untreated 3.5±0.7 μm; for average cell length of B. subtilis / lengthening of cell length of B. subtilis versus untreated: 4 hours; for lengthening of cell length of B. subtilis versus untreated: compound at half of MIC; for filamentation of B. subtilis 168 cells: sub-lethal concentrations", "description": "The log-phase culture of B. subtilis was tested with the two compounds with a final concentration of half of MIC value. A 1% DMSO solution was used as the control."}, "MRSA strain 2973": {"tested_on": "MRSA strain 2973", "test": "FICI of F332 with antibiotics", "format": "cell-based, S. aureus"}, "MRSA strain 254": {"tested_on": "MRSA strain 254", "test": "FICI of F332 with antibiotics", "format": "cell-based, S. aureus"}}}
{"smiles": "CCCCCCCCCNc1ccc(F)c(C(N)=O)c1F", "note": "[Compound F332, 2,6-difluoro-3-(nonylamino)benzamide]", "values": [{"measurement": "FICI of F332 combined with Amoxicillin", "setting": "MRSA strain 1449", "result": 0.38}, {"measurement": "FICI of F332 combined with Cefuroxime", "setting": "MRSA strain 1449", "result": 1.50}, {"measurement": "FICI of F332 combined with Cloxacillin", "setting": "MRSA strain 1449", "result": 0.63}, {"measurement": "FICI of F332 combined with Meropenem", "setting": "MRSA strain 1449", "result": 33.0}, {"measurement": "FICI of F332 combined with Meticillin", "setting": "MRSA strain 1449", "result": 0.75}, {"measurement": "FICI of F332 combined with Amoxicillin", "setting": "MRSA strain 2490", "result": 0.56}, {"measurement": "FICI of F332 combined with Cefuroxime", "setting": "MRSA strain 2490", "result": 0.19}, {"measurement": "FICI of F332 combined with Cloxacillin", "setting": "MRSA strain 2490", "result": 0.56}, {"measurement": "FICI of F332 combined with Meropenem", "setting": "MRSA strain 2490", "result": 2.25}, {"measurement": "FICI of F332 combined with Meticillin", "setting": "MRSA strain 2490", "result": 0.25}, {"measurement": "IC50 at 3 days", "setting": "[1]", "result": "> 100", "unit": "µM"}, {"measurement": "FICI of F332 combined with Amoxicillin", "setting": "MRSA strain 1402", "result": 1.02}, {"measurement": "FICI of F332 combined with Cefuroxime", "setting": "MRSA strain 1402", "result": 0.63}, {"measurement": "FICI of F332 combined with Cloxacillin", "setting": "MRSA strain 1402", "result": 0.75}, {"measurement": "FICI of F332 combined with Meropenem", "setting": "MRSA strain 1402", "result": 5.00}, {"measurement": "FICI of F332 combined with Meticillin", "setting": "MRSA strain 1402", "result": 0.56}, {"measurement": "FICI of F332 combined with Amoxicillin", "setting": "MRSA strain 3580", "result": 0.28}, {"measurement": "FICI of F332 combined with Cefuroxime", "setting": "MRSA strain 3580", "result": 0.06}, {"measurement": "FICI of F332 combined with Cloxacillin", "setting": "MRSA strain 3580", "result": 0.53}, {"measurement": "FICI of F332 combined with Meropenem", "setting": "MRSA strain 3580", "result": 1.25}, {"measurement": "FICI of F332 combined with Meticillin", "setting": "MRSA strain 3580", "result": 0.19}, {"measurement": "FICI of F332 combined with Amoxicillin", "setting": "MRSA strain 1136", "result": 1.03}, {"measurement": "FICI of F332 combined with Cefuroxime", "setting": "MRSA strain 1136", "result": 0.13}, {"measurement": "FICI of F332 combined with Cloxacillin", "setting": "MRSA strain 1136", "result": 0.38}, {"measurement": "FICI of F332 combined with Meropenem", "setting": "MRSA strain 1136", "result": 4.50}, {"measurement": "FICI of F332 combined with Meticillin", "setting": "MRSA strain 1136", "result": 0.31}, {"measurement": "FICI of F332 combined with Amoxicillin", "setting": "[2]", "result": 1.03}, {"measurement": "FICI of F332 combined with Cefuroxime", "setting": "[2]", "result": 1.13}, {"measurement": "FICI of F332 combined with Cloxacillin", "setting": "[2]", "result": 1.25}, {"measurement": "FICI of F332 combined with Meropenem", "setting": "[2]", "result": 10.0}, {"measurement": "FICI of F332 combined with Meticillin", "setting": "[2]", "result": 1.06}, {"measurement": "FICI of F332 combined with Amoxicillin", "setting": "MRSA strain 2516", "result": 0.38}, {"measurement": "FICI of F332 combined with Cefuroxime", "setting": "MRSA strain 2516", "result": 0.07}, {"measurement": "FICI of F332 combined with Cloxacillin", "setting": "MRSA strain 2516", "result": 0.19}, {"measurement": "FICI of F332 combined with Meropenem", "setting": "MRSA strain 2516", "result": 0.38}, {"measurement": "FICI of F332 combined with Meticillin", "setting": "MRSA strain 2516", "result": 0.19}, {"measurement": "FICI of F332 combined with Amoxicillin", "setting": "MRSA strain 774", "result": 0.03}, {"measurement": "FICI of F332 combined with Cefuroxime", "setting": "MRSA strain 774", "result": 0.01}, {"measurement": "FICI of F332 combined with Cloxacillin", "setting": "MRSA strain 774", "result": 0.50}, {"measurement": "FICI of F332 combined with Meropenem", "setting": "MRSA strain 774", "result": 0.13}, {"measurement": "FICI of F332 combined with Meticillin", "setting": "MRSA strain 774", "result": 0.26}, {"measurement": "FICI of F332 combined with Amoxicillin", "setting": "MRSA strain 2728", "result": 0.08}, {"measurement": "FICI of F332 combined with Cefuroxime", "setting": "MRSA strain 2728", "result": 0.14}, {"measurement": "FICI of F332 combined with Cloxacillin", "setting": "MRSA strain 2728", "result": 1.01}, {"measurement": "FICI of F332 combined with Meropenem", "setting": "MRSA strain 2728", "result": 2.03}, {"measurement": "FICI of F332 combined with Meticillin", "setting": "MRSA strain 2728", "result": 0.16}, {"measurement": "FICI of F332 combined with Amoxicillin", "setting": "MRSA strain 231", "result": 0.52}, {"measurement": "FICI of F332 combined with Cefuroxime", "setting": "MRSA strain 231", "result": 0.50}, {"measurement": "FICI of F332 combined with Cloxacillin", "setting": "MRSA strain 231", "result": 0.28}, {"measurement": "FICI of F332 combined with Meropenem", "setting": "MRSA strain 231", "result": 0.63}, {"measurement": "FICI of F332 combined with Meticillin", "setting": "MRSA strain 231", "result": 0.50}, {"measurement": "FICI of F332 combined with Amoxicillin", "setting": "MRSA strain 3332", "result": 0.63}, {"measurement": "FICI of F332 combined with Cefuroxime", "setting": "MRSA strain 3332", "result": 0.13}, {"measurement": "FICI of F332 combined with Cloxacillin", "setting": "MRSA strain 3332", "result": 0.38}, {"measurement": "FICI of F332 combined with Meropenem", "setting": "MRSA strain 3332", "result": 2.25}, {"measurement": "FICI of F332 combined with Meticillin", "setting": "MRSA strain 3332", "result": 0.28}, {"measurement": "average cell length of B. subtilis", "setting": "B. subtilis 168 cells", "result": "11.7±4.5", "unit": "μm"}, {"measurement": "lengthening of cell length of B. subtilis versus untreated", "setting": "B. subtilis 168 cells", "result": "three-fold lengthening"}, {"measurement": "filamentation of B. subtilis 168 cells", "setting": "B. subtilis 168 cells", "result": "cause filamentation"}, {"measurement": "FICI of F332 combined with Amoxicillin", "setting": "MRSA strain 2973", "result": 0.08}, {"measurement": "FICI of F332 combined with Cefuroxime", "setting": "MRSA strain 2973", "result": 0.53}, {"measurement": "FICI of F332 combined with Cloxacillin", "setting": "MRSA strain 2973", "result": 0.07}, {"measurement": "FICI of F332 combined with Meropenem", "setting": "MRSA strain 2973", "result": 4.03}, {"measurement": "FICI of F332 combined with Meticillin", "setting": "MRSA strain 2973", "result": 0.28}, {"measurement": "FICI of F332 combined with Amoxicillin", "setting": "MRSA strain 254", "result": 0.56}, {"measurement": "FICI of F332 combined with Cefuroxime", "setting": "MRSA strain 254", "result": 0.25}, {"measurement": "FICI of F332 combined with Cloxacillin", "setting": "MRSA strain 254", "result": 0.19}, {"measurement": "FICI of F332 combined with Meropenem", "setting": "MRSA strain 254", "result": 1.50}, {"measurement": "FICI of F332 combined with Meticillin", "setting": "MRSA strain 254", "result": 0.25}]}
{"smiles": "CCCCCCCCCN(C)c1ccc(F)c(C(N)=O)c1F", "note": "[Compound F361, 2,6-difluoro-3-(methyl(nonyl)amino)benzamide]", "values": [{"measurement": "IC50 at 3 days", "setting": "[1]", "result": 52, "unit": "µM"}, {"measurement": "average cell length of B. subtilis", "setting": "B. subtilis 168 cells", "result": "21.1±1.8", "unit": "μm"}, {"measurement": "lengthening of cell length of B. subtilis versus untreated", "setting": "B. subtilis 168 cells", "result": "six-fold lengthening"}, {"measurement": "filamentation of B. subtilis 168 cells", "setting": "B. subtilis 168 cells", "result": "cause filamentation"}]}
